Columns and labels:
[1] = test system: duodenal ulcer; conditions: oral dose of 1 g four times daily, for 4-8 weeks; cited from earlier work
[2] = test system: NSAID-induced ulceration; conditions: cited from earlier work
[3] = test system: cervical erosion; assay: Clinical test of topical intravaginal sucralfate gel for cervical erosion (colposcopic examination, signs and symptoms); assay type: in vivo, women; conditions: after six weeks of treatment (so in the source); both formulations together
Description: Based on the observed colposcopic picture of the situation and on the seriousness of the possible accompanying inflammation state the patients under test have been classified according to a conventional classification of the cervical pathology, according to the following grade scheme.
Grade I: simple cervicitis; presence of mosaic-shaped lesions and ectopia; reduced leuconrhea and absence of dyspareunia (abnormal pain during sexual intercourse);
Grade II: cervicitis with extended erosion of the portio (30% of the surface); presence of altered epithelium; occasional blood discharge and occasional dyspareunia;
Grade III: cervicitis with extended erosion of the portio (50% of the surface); presence of ectopia; frequent blood discharge; leucorrhea and dyspareunia.
The 18 women, after final diagnosis, were divided into two test groups of nine patients each, in order to evaluate the effectiveness of the treatment according to the invention in two different formulations. The first formulation, continuing sucralfate at a concentration of 25% by weight as well as polycarbophil as a mucoadhesive/bioadhesive ingredient, corresponds to the preparation referred to above as Formulation 2, while the second formulation under test containing sucralfate at a concentration of 12.5% by weight as well as polycarbophil, corresponds to the Formulation 3. […]

In the case of “β-D-fructofuranosyl-α-D-glucopyranoside octakis(hydrogen sulfate) aluminium complex [sucralfate]”, the “Clinical effectiveness (cases)” value [1] is given as 75 % of cases, the “Effectiveness in NSAID-induced ulceration, duodenal localizations” value ([2]; duodenal localizations) is given as “effective” and the “Effect in NSAID-induced ulceration, gastric lesions” value ([2]; when gastric lesions are present) is given as “only a symptomatic and non-reparative effect”. The “Patients considered on complete recovery” value [3] was 16 patients out of 18.

Reference: patent US20040192640A1, “Use of sucralfate for the treatment of cervical erosion” (priority 2004, published 2004)
